Laboratory results published in patent US6451738B1, “Substituted thienyl(Amino)-sulphonyl(thio)ureas as herbicides” (Bayer Aktiengesellschaft, priority 1996, dated 2002).

How the values were obtained:
weeds [1] = test: Pre-emergence Test; type: in vivo; conditions: in words
Procedure: (§1) Solvent: 5 parts by weight of acetone
(§2) Emulsifier: 1 part by weight of alkylaryl polyglycol ether
(§3) To produce a suitable preparation of active compound, 1 part by weight of active compound is mixed with the stated amount of solvent, the stated amount of emulsifier is added and the concentrate is diluted with water to the desired concentration.
(§4) Seeds of the test plants are sown in normal soil. After about 24 hours, the soil is sprayed with the preparation of active compound in such a way as to apply the particular amounts of active compound desired per unit area. The concentration of the spray liquor is chosen so that the particular amounts of active compound desired are applied in 1000 l of water/ha.
(§5) After three weeks, the degree of damage to the plants is rated in % damage in comparison with the development of the untreated control.
(§6) 0%=no effect (like untreated control)

Lolium = test: Pre-emergence Test/Greenhouse; type: in vivo; conditions: after three weeks, 0%=no effect, 100%=total destruction
Procedure: as §1, §2, §3, §4, §5, §6

Alopecurus [2] = test: Pre-emergence Test/Greenhouse; type: in vivo; conditions: 4 g of ai./ha, after three weeks, 0%=no effect, 100%=total destruction
Procedure: as §1, §2, §3, §4, §5, §6

Chenopodium [3] = test: Pre-emergence Test/Greenhouse; type: in vivo; conditions: after three weeks, 0%=no effect, 100%=total destruction
Procedure: as §1, §2, §3, §4, §5, §6

Matricaria [4] = test: Pre-emergence Test/Greenhouse; type: in vivo; conditions: after three weeks, 0%=no effect, 100%=total destruction
Procedure: as §1, §2, §3, §4, §5, §6

Barley = test: Pre-emergence Test/Greenhouse; type: in vivo; conditions: 4 g of ai./ha, after three weeks, 0%=no effect, 100%=total destruction
Procedure: as §1, §2, §3, §4, §5, §6

Wheat = test: Pre-emergence Test/Greenhouse; type: in vivo; conditions: after three weeks, 0%=no effect, 100%=total destruction
Procedure: as §1, §2, §3, §4, §5, §6

Amaranthus [5] = test: Pre-emergence Test/Greenhouse; type: in vivo; conditions: 504 h, after three weeks, 0%=no effect, 100%=total destruction, read-out: degree of damage, Amaranthus; for pest or weed control at 125 g/ha: 125 g of ai./ha; for pest or weed control at 60 g/ha: 60 g of ai./ha
Procedure: as §1, §2, §3, §4, §5, §6

Veronica = test: Pre-emergence Test/Greenhouse; type: in vivo; conditions: 4 g of ai./ha, after three weeks, 0%=no effect, 100%=total destruction
Procedure: as §1, §2, §3, §4, §5, §6

Chenopodium [6] = test: Post-emergence Test/Greenhouse; type: in vivo; conditions: 60 g of ai./ha, after three weeks, 0%=no effect, 100%=total destruction
Procedure: as §1, §2, §3
as §4, with “Test plants which have a height” for “Seeds”, “5-15 cm” for “the test plants”, “are” for “are sown in normal soil. After about 24 hours, the soil is”
(§7) After three weeks, the degree of damage to the plants is rated in % damage in comparison to the development of the untreated control.
as §6

Matricaria [7] = test: Post-emergence Test/Greenhouse; type: in vivo; conditions: 60 g of ai./ha, after three weeks, 0%=no effect, 100%=total destruction
Procedure: as §1, §2, §3
as §4, with “Test plants which have a height” for “Seeds”, “5-15 cm” for “the test plants”, “are” for “are sown in normal soil. After about 24 hours, the soil is”
as §7, §6

Amaranthus [8] = test: Post-emergence Test/Greenhouse; type: in vivo; conditions: 504 h, after three weeks, 0%=no effect, 100%=total destruction, read-out: degree of damage, Amaranthus; for pest or weed control at 60 g/ha: 60 g of ai./ha
Procedure: as §1, §2, §3
as §4, with “Test plants which have a height” for “Seeds”, “5-15 cm” for “the test plants”, “are” for “are sown in normal soil. After about 24 hours, the soil is”
as §7, §6

Abutilon [9] = test: Post-emergence Test/Greenhouse; type: in vivo; conditions: 60 g of ai./ha, after three weeks, 0%=no effect, 100%=total destruction
Procedure: as §1, §2, §3
as §4, with “Test plants which have a height” for “Seeds”, “5-15 cm” for “the test plants”, “are” for “are sown in normal soil. After about 24 hours, the soil is”
as §7, §6

Xanthium = test: Post-emergence Test/Greenhouse; type: in vivo; conditions: 60 g of ai./ha, after three weeks, 0%=no effect, 100%=total destruction
Procedure: as §1, §2, §3
as §4, with “Test plants which have a height” for “Seeds”, “5-15 cm” for “the test plants”, “are” for “are sown in normal soil. After about 24 hours, the soil is”
as §7, §6

weeds [10] = test: Post-emergence Test; type: in vivo; conditions: in words
Procedure: as §1, §2, §3
as §4, with “Test plants which have a height” for “Seeds”, “5-15 cm” for “the test plants”, “are” for “are sown in normal soil. After about 24 hours, the soil is”
as §7, §6

Galium = test: Pre-emergence Test/Greenhouse; type: in vivo; conditions: after three weeks, 0%=no effect, 100%=total destruction
Procedure: as §1, §2, §3, §4, §5, §6

Avena fatua = test: Pre-emergence Test/Greenhouse; type: in vivo; conditions: 125 g of ai./ha, after three weeks, 0%=no effect, 100%=total destruction
Procedure: as §1, §2, §3, §4, §5, §6

Sinapis [11] = test: Pre-emergence Test/Greenhouse; type: in vivo; conditions: after three weeks, 0%=no effect, 100%=total destruction
Procedure: as §1, §2, §3, §4, §5, §6

Alopecurus [12] = test: Post-emergence Test/Greenhouse; type: in vivo; conditions: after three weeks, 0%=no effect, 100%=total destruction
Procedure: as §1, §2, §3
as §4, with “Test plants which have a height” for “Seeds”, “5-15 cm” for “the test plants”, “are” for “are sown in normal soil. After about 24 hours, the soil is”
as §7, §6

Sinapis [13] = test: Post-emergence Test/Greenhouse; type: in vivo; conditions: after three weeks, 0%=no effect, 100%=total destruction
Procedure: as §1, §2, §3
as §4, with “Test plants which have a height” for “Seeds”, “5-15 cm” for “the test plants”, “are” for “are sown in normal soil. After about 24 hours, the soil is”
as §7, §6

Echinochloa = test: Pre-emergence Test/Greenhouse; type: in vivo; conditions: 60 g of ai./ha, after three weeks, 0%=no effect, 100%=total destruction
Procedure: as §1, §2, §3, §4, §5, §6

Abutilon [14] = test: Pre-emergence Test/Greenhouse; type: in vivo; conditions: 60 g of ai./ha, after three weeks, 0%=no effect, 100%=total destruction
Procedure: as §1, §2, §3, §4, §5, §6

Setaria [15] = test: Pre-emergence Test/Greenhouse; type: in vivo; conditions: 60 g of ai./ha, after three weeks, 0%=no effect, 100%=total destruction
Procedure: as §1, §2, §3, §4, §5, §6

Cyperus = test: Pre-emergence Test/Greenhouse; type: in vivo; conditions: 60 g of ai./ha, after three weeks, 0%=no effect, 100%=total destruction
Procedure: as §1, §2, §3, §4, §5, §6

Setaria [16] = test: Post-emergence Test/Greenhouse; type: in vivo; conditions: 60 g of ai./ha, after three weeks, 0%=no effect, 100%=total destruction
Procedure: as §1, §2, §3
as §4, with “Test plants which have a height” for “Seeds”, “5-15 cm” for “the test plants”, “are” for “are sown in normal soil. After about 24 hours, the soil is”
as §7, §6

melting point [°C] | SMILES | activity against weeds (weeds [1]) | pest or weed control at 60 g/ha (Amaranthus [8]) [%] | degree of damage, Abutilon (Abutilon [9]) [%] | activity against weeds (weeds [10]) | pest or weed control at 60 g/ha (Amaranthus [5]) [%] | degree of damage, Sinapis (Sinapis [11]; 60 g of ai./ha) [%] | degree of damage, Sinapis (Sinapis [13]; 60 g of ai./ha) [%] | other results
189 | COc1nc(C)nc(NC(=O)NS(=O)(=O)c2c(C)csc2C)n1 [Example 1, N-(4-methoxy-6-methyl-1,3,5-triazin-2-yl)-N′-(2,4-dimethyl-thien-3-yl-sulplhonyl)-urea] | very strong activity | 95 | 95 | strong activity | – | – | – | degree of damage, Lolium (Lolium; 4 g of ai./ha): 100%; degree of damage, Alopecurus (Alopecurus [2]): 100%; degree of damage, Chenopodium (Chenopodium [3]; 4 g of ai./ha): 100%; degree of damage, Matricaria (Matricaria [4]; 4 g of ai./ha): 100%; degree of damage, Barley (Barley): 0%; degree of damage, Wheat (Wheat; 4 g of ai./ha): 0%; pest or weed control at 4 g/ha (Amaranthus [5]; 4 g of ai./ha): 100%; degree of damage, Veronica (Veronica): 100%; degree of damage, Chenopodium (Chenopodium [6]): 100%; degree of damage, Matricaria (Matricaria [7]): 95%; degree of damage, Xanthium (Xanthium): 100%
195 | Cc1csc(C)c1S(=O)(=O)NC(=O)Nc1nc(OCC(F)(F)F)nc(N(C)C)n1 [Example 6] | very strong activity | – | – | strong activity | – | – | – | degree of damage, Galium (Galium; 125 g of ai./ha): 100%; pest or weed control at 125 g/ha (Amaranthus [5]): 90%; degree of damage, Avena fatua (Avena fatua): 80%; degree of damage, Sinapis (Sinapis [11]; 125 g of ai./ha): 90%; degree of damage, Alopecurus (Alopecurus [12]; 125 g of ai./ha): 100%; pest or weed control at 125 g/ha (Amaranthus [8]; 125 g of ai./ha): 80%; degree of damage, Sinapis (Sinapis [13]; 125 g of ai./ha): 100%
219 | COc1cc(Cl)nc(NC(=O)NS(=O)(=O)c2c(C)csc2C)n1 [Example 16] | very strong activity | 100 | – | strong activity | 95 | 95 | 95 | degree of damage, Cyperus (Cyperus): 80%

The remaining lines, values behind:

SMILES | melting point [°C] | activity against weeds (weeds [1]) | pest or weed control at 60 g/ha (Amaranthus [8]) [%] | degree of damage, Abutilon (Abutilon [9]) [%] | activity against weeds (weeds [10]) | pest or weed control at 60 g/ha (Amaranthus [5]) [%] | degree of damage, Sinapis (Sinapis [11]; 60 g of ai./ha) [%] | degree of damage, Sinapis (Sinapis [13]; 60 g of ai./ha) [%] | other results
COc1cc(OC)nc(NC(=O)NS(=O)(=O)c2c(C)csc2C)n1 [Example 7] | 198 | very strong activity | 95 | 95 | strong activity | – | – | – | degree of damage, Lolium (Lolium; 60 g of ai./ha): 95%; degree of damage, Chenopodium (Chenopodium [3]; 60 g of ai./ha): 90%; degree of damage, Matricaria (Matricaria [4]; 60 g of ai./ha): 95%; degree of damage, Echinochloa (Echinochloa): 95%; degree of damage, Wheat (Wheat; 60 g of ai./ha): 10%; degree of damage, Chenopodium (Chenopodium [6]): 95%; degree of damage, Matricaria (Matricaria [7]): 95%; degree of damage, Xanthium (Xanthium): 95%
Cc1csc(C)c1S(=O)(=O)NC(=O)Nc1nc(Oc2ccccc2)nc(N(C)C)n1 [Example 8] | 173 | very strong activity | – | – | – | – | – | – | degree of damage, Galium (Galium; 125 g of ai./ha): 90%; pest or weed control at 125 g/ha (Amaranthus [5]): 80%; degree of damage, Avena fatua (Avena fatua): 80%; degree of damage, Sinapis (Sinapis [11]; 125 g of ai./ha): 80%
COc1nc(NC(=O)NS(=O)(=O)c2c(C)csc2C)nc(OC)n1 [Example 9] | 168 | very strong activity | 100 | 80 | strong activity | 90 | 90 | 95 | degree of damage, Abutilon (Abutilon [14]): 90%
COc1nc(NC(=O)NS(=O)(=O)c2c(C)csc2C)nc(C2CC2)n1 [Example 10] | 180 | very strong activity | – | – | – | 80 | – | – | degree of damage, Setaria (Setaria [15]): 80%; degree of damage, Galium (Galium; 60 g of ai./ha): 100%
CSc1nc(C)nc(NC(=O)NS(=O)(=O)c2c(C)csc2C)n1 [Example 11] | 220 | – | 100 | – | strong activity | – | – | 100 | –
CCc1nc(NC(=O)NS(=O)(=O)c2c(C)csc2C)nc(OC)n1 [Example 13] | 161 | – | 100 | 90 | strong activity | – | – | 95 | –
Cc1cc(C)nc(NC(=O)NS(=O)(=O)c2c(C)csc2C)n1 [Example 14] | 240 | very strong activity | 100 | – | strong activity | 90 | 90 | 100 | degree of damage, Cyperus (Cyperus): 100%; degree of damage, Alopecurus (Alopecurus [12]; 60 g of ai./ha): 80%
COc1cc(C)nc(NC(=O)NS(=O)(=O)c2c(C)csc2C)n1 [Example 15] | 140 | very strong activity | 100 | 90 | strong activity | 90 | 100 | 100 | degree of damage, Abutilon (Abutilon [14]): 100%; degree of damage, Setaria (Setaria [16]): 90%
